Molecular target: T1, HMG-CoA reductase (Homo sapiens, UniProt P04035)
T1 construct: endogenous in cells; host or cells: HepG2 (Korea Cell Line Bank)
T1 sequence (P04035 1-888): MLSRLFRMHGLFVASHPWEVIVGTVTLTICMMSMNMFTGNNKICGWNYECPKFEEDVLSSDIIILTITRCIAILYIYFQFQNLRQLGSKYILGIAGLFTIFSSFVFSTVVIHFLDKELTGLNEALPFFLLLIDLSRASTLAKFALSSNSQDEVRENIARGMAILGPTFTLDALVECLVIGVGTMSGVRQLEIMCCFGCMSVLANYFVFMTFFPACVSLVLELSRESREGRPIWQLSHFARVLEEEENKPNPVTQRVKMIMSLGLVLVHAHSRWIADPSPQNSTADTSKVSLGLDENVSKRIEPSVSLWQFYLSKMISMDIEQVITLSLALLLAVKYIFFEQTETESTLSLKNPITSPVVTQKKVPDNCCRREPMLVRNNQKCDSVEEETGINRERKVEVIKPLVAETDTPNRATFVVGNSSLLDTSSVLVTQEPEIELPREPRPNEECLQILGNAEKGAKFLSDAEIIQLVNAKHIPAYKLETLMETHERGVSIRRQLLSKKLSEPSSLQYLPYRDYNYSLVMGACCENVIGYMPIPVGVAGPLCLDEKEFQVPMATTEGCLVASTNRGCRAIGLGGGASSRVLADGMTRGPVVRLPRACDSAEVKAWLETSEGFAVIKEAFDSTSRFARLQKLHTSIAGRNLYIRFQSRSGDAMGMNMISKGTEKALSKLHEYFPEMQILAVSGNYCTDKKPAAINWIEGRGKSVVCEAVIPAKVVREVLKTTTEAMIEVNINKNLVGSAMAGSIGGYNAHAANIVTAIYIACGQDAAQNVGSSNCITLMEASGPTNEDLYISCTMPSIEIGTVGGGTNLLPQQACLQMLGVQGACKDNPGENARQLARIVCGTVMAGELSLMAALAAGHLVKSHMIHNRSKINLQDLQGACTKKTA
Assay: HMG-CoA reductase (HMGCR) degradation in HepG2 cells by western blotting
Type: cell-based
Details: treated for 18 hours, ratio of HMG-CoA reductase to GAPDH, read-out: DC50
Experimental: HepG2, a human liver cancer cell line, was purchased from the Korea Cell Line Bank (KCLB), Seoul, Korea. The passage in cell culture was maintained at P105 to P110.
The compounds of the present invention were completely dissolved in DMSO and used in the experiment. 2×10^5 cells were seeded for each well of a 12-well plate (SPL), and the cells were cultured in the culture medium in a total volume of 2 ml. Each of the compounds of the present invention and comparative compounds was diluted three folds from the highest concentration of 3 μM to the lowest concentration in 10 points and treated for 18 hours.
Each of the compounds the present invention and comparative compounds was diluted three folds from the highest concentration of 3 μM to the lowest concentration of […] in 10 points and was treated for 18 hours.
For SDS-PAGE and Western blotting, 1×RIPA lysis buffer (Rockland, Cat. No. MB-030-0050; Lot no. 39751), 100× Protease Inhibitor Cocktail (Quartett, Cat. No. PPI1015; Lot no. PCO50038424), Pierce™ BCA protein assay kit (ThermoScientific, Cat. No. 23225; Lot no. UC276876), albumin standard (ThermoScientific, Cat. No. 23209; Lot no. UB269561), 4-15% Mini-PROTEAN TGX stain-free gel (Bio-rad, Cat. No. 4568085; Lot no. L007041B), 10× Tris/Glycine/SDS buffer (Bio-rad, Cat. No. 1610732; Lot no. 10000044375B); 10×TBS (Bio-rad, Cat. No. 1706435; Lot no. 1000045140B), 10% Tween 20 (Cat. No. 1610781; Lot no. L004152B), Color protein standard broad range (NEB, Cat. No. P7719S; Lot no. 10040349), 4× Laemmli sample buffer (Bio-rad, Cat. No. 1610747; Lot no. L004133B), β-mercaptoethanol (Sigma-Aldrich, Cat. No. M3148; Lot no. 60-24-2), SuperBlock™ T20 (TBS) blocking buffer (ThermoScientific, Cat. No. 37536; Lot no. UC282578), 1M sodium azide solution (Sigma-Aldrich, Cat. No. 08591-1 mL-F; Lot no. BCBV4989), α-Rabbit pAb to Ms IgG (abcam, Cat. No. ab97046; Lot no. GR3252115-1), α-Goat pAb to Rb IgG (CST, Cat. No. 7074S; Lot no. 28), α-GAPDH (abcam, Cat. No. ab8245), α-HMGCR (GeneTex, Cat. No. GTX54088; Lot no. 821903509), ECL™ Prime western blotting reagents (GE Healthcare, Cat. No. RPN2232; Lot no. 17001655), Ponceau S solution (Sigma-Aldrich, Cat. No. P7170; Lot no. SLBV4112), Difco™ Skim milk (BD, Cat. No. 232100; Lot no. 8346795), and iBlot® 2 NC Regular stacks (Invitrogen, Cat. No. IB23001; Lot no. 2NR110619-02), were used.
For cell harvesting, the cells were first separated from the plate using trypsin and then washed with the medium and PBS. Specifically, the medium was suctioned off and washed with 1 mL of PBS, and PBS was suctioned off. The cells were treated with 0.5 mL TrypLE™ Express at 37° C. for 7 minutes to separate the cells, and then 0.5 mL of complete medium was added to collect 1 mL of cell culture solution. Then, 1 mL of the cell collection solution was centrifuged at 8,000 rpm for 120 seconds, and the supernatant was removed. After washing with 0.2 mL of PBS, the PBS was removed.
For cell lysis, a lysis buffer was added and cell debris was removed to obtain a cell lysate. Specifically, the cells were treated with 70 μL of 1×RIPA buffer containing a protease inhibitor and incubated for 30 minutes on ice. Then, the cells were centrifuged at 4° C. and 15,000 rpm for 10 minutes to obtain a cell lysate.
Then, a standard curve was obtained using the BCA assay, and the protein mass in the lysate was quantified by substituting the curve. The mixture was incubated at 37° C. for 30 minutes using 20 μL of standard or sample solution, and 200 μL of BCA or Bradford solution, and measured at 562 nm absorbance. Samples were prepared by adding 4× sample buffer so that the quantity of protein added to each well was 15 μg.
Sodium dodecyl sulfate polyacrylamide gel electrophoresis (SDS-PAGE) was performed by setting a running time of 100 minutes at 120 V on a 4-15% Mini-PROTEAN TGX stain-free gel (15 well). Transferring was performed on iBlot® 2 NC Mini stacks at P0 mode of the dry blotting system. […]

Structure (SMILES)	DC50 [nM]
C[C@H]1C=C2C=C[C@H](C)[C@H](CC[C@@H]3C[C@@H](O)CC(=O)O3)[C@H]2[C@@H](OC(=O)C(C)(C)CCC(=O)NCCOCCOCCOCCNc2ccccc2)C1 [Compound 1, (1S,3R,7S,8S,8aR)-8-(2-((2R,4R)-4-hydroxy-6-oxotetrahydro-2H-pyran-2-yl)ethyl)-3,7-dimethyl-1,2,3,7,8,8a-hexahydronaphthalen-1-yl 16,16-dimethyl-13-oxo-1-(phenylamino)-3,6,9-trioxa-12-azaheptadecan-17-oate]	> 500
C[C@H]1C=C2C=C[C@H](C)[C@H](CC[C@@H]3C[C@@H](O)CC(=O)O3)[C@H]2[C@@H](OC(=O)C(C)(C)CCC(=O)NCCOCCOCCNc2cccc3c2C(=O)N(C2CCC(=O)NC2=O)C3=O)C1 (stereo partly drawn) [Compound 2, (1S,3R,7S,8S,8aR)-8-(2-((2R,4R)-4-hydroxy-6-oxotetrahydro-2H-pyran-2-yl)ethyl)-3,7-dimethyl-1,2,3,7,8,8a-hexahydronaphthalen-1-yl 5-((2-(2-(2-((2-(2,6-dioxopiperidin-3-yl)-1,3-dioxoisoindolin-4-yl)amino)ethoxy)ethoxy)ethyl)amino)-2,2-dimethyl-5-oxopentanoate]	< 50
C[C@H]1C=C2C=C[C@H](C)[C@H](CC[C@@H]3C[C@@H](O)CC(=O)O3)[C@H]2[C@@H](OC(=O)C(C)(C)CCC(=O)NCCOCCOCCOCCNc2cccc3c2C(=O)N(C2CCC(=O)NC2=O)C3=O)C1 (stereo partly drawn) [Compound 3, (1S,3R,7S,8S,8aR)-8-(2-((2R,4R)-4-hydroxy-6-oxotetrahydro-2H-pyran-2-yl)ethyl)-3,7-dimethyl-1,2,3,7,8,8a-hexahydronaphthalen-1-yl 1-((2-(2,6-dioxopiperidin-3-yl)-1,3-dioxoisoindolin-4-yl)amino)-16,16-dimethyl-13-oxo-3,6,9-trioxa-12-azaheptadecan-17-oate]	< 50
C[C@H]1C=C2C=C[C@H](C)[C@H](CC[C@@H]3C[C@@H](O)CC(=O)O3)[C@H]2[C@@H](OC(=O)C(C)(C)CCC(=O)NCCOCCOCCOCCOCCNc2cccc3c2C(=O)N(C2CCC(=O)NC2=O)C3=O)C1 (stereo partly drawn) [Compound 4, (1S,3R,7S,8S,8aR)-8-(2-((2R,4R)-4-hydroxy-6-oxotetrahydro-2H-pyran-2-yl)ethyl)-3,7-dimethyl-1,2,3,7,8,8a-hexahydronaphthalen-1-yl 1-((2-(2,6-dioxopiperidin-3-yl)-1,3-dioxoisoindolin-4-yl)amino)-19,19-dimethyl-16-oxo-3,6,9,12-tetraoxa-15-azaicosan-20-oate]	< 50
C[C@H]1C=C2C=C[C@H](C)[C@H](CC[C@@H]3C[C@@H](O)CC(=O)O3)[C@H]2[C@@H](OC(=O)C(C)(C)CCC(=O)NCCOCCOCCOCCOCCOCCNc2cccc3c2C(=O)N(C2CCC(=O)NC2=O)C3=O)C1 (stereo partly drawn) [Compound 5, (1S,3R,7S,8S,8aR)-8-(2-((2R,4R)-4-hydroxy-6-oxotetrahydro-2H-pyran-2-yl)ethyl)-3,7-dimethyl-1,2,3,7,8,8a-hexahydronaphthalen-1-yl 1-((2-(2,6-dioxopiperidin-3-yl)-1,3-dioxoisoindolin-4-yl)amino)-22,22-dimethyl-19-oxo-3,6,9,12,15-pentaoxa-18-azatricosan-23-oate]	< 50
C[C@H]1C=C2C=C[C@H](C)[C@H](CC[C@@H]3C[C@@H](O)CC(=O)O3)[C@H]2[C@@H](OC(=O)C(C)(C)CCC(=O)NCCOCCOCCOCCOCCOCCOCCNc2cccc3c2C(=O)N(C2CCC(=O)NC2=O)C3=O)C1 (stereo partly drawn) [Compound 6, (1S,3R,7S,8S,8aR)-8-(2-((2R,4R)-4-hydroxy-6-oxotetrahydro-2H-pyran-2-yl)ethyl)-3,7-dimethyl-1,2,3,7,8,8a-hexahydronaphthalen-1-yl 1-((2-(2,6-dioxopiperidin-3-yl)-1,3-dioxoisoindolin-4-yl)amino)-25,25-dimethyl-22-oxo-3,6,9,12,15,18-hexaoxa-21-azahexacosan-26-oate]	< 50
C[C@H]1C=C2C=C[C@H](C)[C@H](CC[C@@H]3C[C@@H](O)CC(=O)O3)[C@H]2[C@@H](OC(=O)C(C)(C)CCC(=O)NCCOCCOCCOCC(=O)NCC(C)(C)C)C1 [Compound 7, (1S,3R,7S,8S,8aR)-8-(2-((2R,4R)-4-hydroxy-6-oxotetrahydro-2H-pyran-2-yl)ethyl)-3,7-dimethyl-1,2,3,7,8,8a-hexahydronaphthalen-1-yl 2,2,20,20-tetramethyl-5,17-dioxo-7,10,13-trioxa-4,16-diazahenicosan-21-oate]	> 500
Cc1ncsc1-c1ccc(CNC(=O)[C@@H]2C[C@@H](O)CN2C(=O)[C@@H](NC(=O)COCCNC(=O)CCC(C)(C)C(=O)O[C@H]2C[C@@H](C)C=C3C=C[C@H](C)[C@H](CC[C@@H]4C[C@@H](O)CC(=O)O4)[C@H]32)C(C)(C)C)cc1 [Compound 8, (1S,3R,7S,8S,8aR)-8-(2-((2R,4R)-4-hydroxy-6-oxotetrahydro-2H-pyran-2-yl)ethyl)-3,7-dimethyl-1,2,3,7,8,8a-hexahydronaphthalen-1-yl 5-((2-(2-(((S)-1-((2S,4R)-4-hydroxy-2-((4-(4-methylthiazol-5-yl)benzyl)carbamoyl)pyrrolidin-1-yl)-3,3-dimethyl-1-oxobutan-2-yl)amino)-2-oxoethoxy)ethyl)amino)-2,2-dimethyl-5-oxopentanoate]	< 50
